Key:
Assay type in all cases: in vivo, maize
acs6/acs6 plants [1] = assay: total soluble leaf protein after 7 day dark treatment; conditions: watered with 100 μM ACC
Description: (§1) FIG. 20 Panel A illustrates chlorophyll data, Panel B soluble protein, and Panel C Rubisco expression. The level of chlorophyll a+b (Panel A) and soluble protein (Panel B) was measured in the third oldest leaf (Leaf 3), sixth oldest leaf (Leaf 6), and ninth oldest leaf (Leaf 9) of adult wild-type (i.e., ACS6/ACS6), acs21acs2, and acs61acs6 plants following dark treatment for 7 days. Plants were watered daily. Additional acs61acs6 plants were watered daily with 100 μM ACC during the treatment. acs61acs6 leaves watered with 100 μM ACC but kept unsheathed are also shown. The average and standard deviation of leaves from three individual plants is shown. (Panel C) Western analysis of the same leaves was performed using rice anti-Rubisco antiserum. Soluble protein from leaf samples of equal fresh weight was used.
For total protein isolation, leaves of B73 or mutant plants were collected at the indicated times, quick-frozen in liquid nitrogen and ground to a fine powder. […] Samples were centrifuged 10 min at 10,000 rpm, the supernatant removed to a new tube and the concentration determined spectrophotometrically according to the methods of Bradford (1976). See, Bradford M M (1976) A rapid and sensitive method for the quantitation of microgram quantities of protein utilizing the principle of protein-dye binding. […]

acs6/acs6 plants [2] = assay: chlorophyll a+b level in leaves after 7 day dark treatment
Description: as §1
Leaves were frozen in liquid nitrogen and ground to a fine powder. Samples of approximately 0.1 g were removed to a 1.5 ml tube and weighed. Chlorophyll was extracted 5× with 1 ml (or 0.8 ml) of 80% acetone. Individual extractions were combined and the final volume adjusted to 10 ml (or 15 ml) with additional 80% acetone. Chlorophyll content (a+b) was determined spectrophotometrically according to the methods of Wellburn (1994). […]

acs6/acs6 plants [3] = assay: Western analysis for Rubisco in leaves
Description: as §1
B73 leaves were collected at the indicated times and ground in liquid nitrogen to a fine powder. One ml of extraction buffer [20 mM HEPES (pH 7.6), 100 mM KCl, 10% glycerol, 1 mM PMSF] was added to approximately 0.1 g frozen powder and mixed thoroughly. Cell debris was pelleted by centrifugation at 10,000 rpm for 10 min and the protein concentration determined as described (Bradford, 1976). […] The blots were washed twice with TPBS and the signal detected typically between 1 to 15 min using chemiluminescence (Amersham Corp). […]

acs6/acs6 plants [4] = assay: dark-induced senescence of sheathed leaves, complementation of the acs6 mutant by exogenous ACC
Description: To examine if exogenous ACC could complement the acs6 mutant and reverse its staygreen phenotype, the third oldest, sixth, and ninth leaf from ACS6/ACS6, acs2/acs2, and acs6/acs6 plants were subject to dark-induced senescence at 20 DAP by covering them with sheaths for 7 days. All leaves were fully green at the onset of the experiment and remained attached to the plant. acs6/acs6 plants were watered daily with water or 100 μM ACC for 7 days. Following 7 days, dark-induced senescence had initiated in wild-type (i.e., ASC6/ASC6) leaves although it had not progressed to the extent observed following a 2 week dark treatment. […] Dark-induced senescence was also observed in leaf 3 of the acs2 homozygous mutant although it was less pronounced than that observed in the corresponding wild-type leaves.

With `NC1(C(=O)O)CC1` [ACC, 1-aminocyclopropane-1-carboxylic acid] the “retention of total soluble leaf protein compared with wild-type leaves” value (acs6/acs6 plants [1]) was “did not do so when watered with 100 μM ACC”, the “retention of chlorophyll a+b compared with wild-type leaves” value (acs6/acs6 plants [2]; acs6 leaves, 7 day dark treatment, watered with 100 μM ACC) was “did not do so when watered with 100 μM ACC” and the loss of chlorophyll (acs6/acs6 plants [2]; unsheathed leaves of acs6 mutants watered with ACC) was “chlorophyll was not lost”. For the same compound, the “loss of Rubisco” value (acs6/acs6 plants [3]; ACC-treated acs6 leaves that remained in the light) was “No loss of Rubisco was observed”, the “loss of Rubisco” value (acs6/acs6 plants [3]; dark-treated acs6 leaves watered with 100 μM ACC) was “lost an amount of Rubisco similar to that of dark-treated B73 leaves” and the “senescence of leaves that were not sheathed (visual)” value (acs6/acs6 plants [4]; acs6 leaves not sheathed, plants watered daily with 100 μM ACC for 7 days) was “did not affect acs6 leaves that were not sheathed”. For the same compound, the “dark-induced senescence (visual)” value (acs6/acs6 plants [4]; acs6 leaves sheathed 7 days at 20 DAP, plants watered daily with 100 μM ACC) was “dark-induced senescence similar to that of wild-type leaves was observed”.
